Patent publication US9707229B2, “Compositions and methods for treating an infection” (CMPD LICENSING, LLC, priority 2015, dated 2017)

What was measured:
Type in all cases: cell-based
Aspergillus fumigatus = test: Expected efficacy of antifungal agents
Blastomyces dermatitidis = test: Expected efficacy of antifungal agents
Candida species = test: Expected efficacy of antifungal agents
Cryptococcus neoformans = test: Expected efficacy of antifungal agents
Histoplasma capsulatum = conditions: expected efficacy
Coccidioides immitis = conditions: expected efficacy
Aspergillus flavus = test: Expected efficacy of antifungal agents
Pseudomonas aeruginosa = test: Expected efficacy of antibiotic agents; conditions: Gram: neg
Vibrio cholerae = test: Expected efficacy of antibiotic agents; conditions: Gram: neg
Bacteroides fragilis = test: Expected efficacy of antibiotic agents; conditions: Gram: anaer
Diphtheroids = test: Expected efficacy of antibiotic agents; conditions: Gram: pos
Shigella sonnei = test: Expected efficacy of antibiotic agents; conditions: Gram: neg
Francisella tularensis = system: Francisella tularensis
Peptostreptococcus = test: Expected efficacy of antibiotic agents; conditions: Gram: pos
Providencia stuartii = test: Expected efficacy of antibiotic agents; conditions: Gram: neg
[1] = system: Methicillin resistant staph aureus (MRSA); test: Expected efficacy of antibiotic agents; conditions: Gram: pos
Klebsiella pneumoniae = test: Expected efficacy of antibiotic agents; conditions: Gram: neg
Providencia rettgeri = test: Expected efficacy of antibiotic agents; conditions: Gram: neg
[2] = system: Klebsiella (Calymmatobacterium) granulomatis; test: Expected efficacy of antibiotic agents; conditions: Gram: neg
Shigella flexneri = test: Expected efficacy of antibiotic agents; conditions: Gram: neg
[3] = system: Haemophilus parainfluenzae; test: Expected efficacy of antibiotic agents; conditions: Gram: neg
Proteus mirabilis = test: Expected efficacy of antibiotic agents; conditions: Gram: neg
[4] = system: Acinetobacter calcoaceticus; test: Expected efficacy of antibiotic agents; conditions: Gram: neg
Streptococcus agalactiae = test: Expected efficacy of antibiotic agents; conditions: Gram: pos
Clostridium perfringens = system: Clostridium perfringens
Chlamydia pneumoniae = test: Expected efficacy of antibiotic agents; conditions: Gram: n/a
Serratia marcescens = test: Expected efficacy of antibiotic agents; conditions: Gram: neg
Neisseria meningitidis = test: Expected efficacy of antibiotic agents; conditions: Gram: neg
Morganella morganii = test: Expected efficacy of antibiotic agents; conditions: Gram: neg
Mycoplasma pneumoniae = test: Expected efficacy of antibiotic agents; conditions: Gram: n/a
Neisseria gonorrhoeae = test: Expected efficacy of antibiotic agents; conditions: Gram: neg
Salmonella typhi = test: Expected efficacy of antibiotic agents; conditions: Gram: neg
[5] = system: Corynebacterium urealyticum; test: Expected efficacy of antibiotic agents; conditions: Gram: pos
Streptococcus pyogenes = test: Expected efficacy of antibiotic agents; conditions: Gram: pos
Klebsiella oxytoca = test: Expected efficacy of antibiotic agents; conditions: Gram: neg
Clostridium difficile = test: Expected efficacy of antibiotic agents; conditions: Gram: anaer
Campylobacter jejuni = test: Expected efficacy of antibiotic agents; conditions: Gram: neg
[6] = system: Staphylococcus aureus (MSSA); test: Expected efficacy of antibiotic agents; conditions: Gram: pos
Acinetobacter baumannii = test: Expected efficacy of antibiotic agents; conditions: Gram: neg
Shigella boydii = test: Expected efficacy of antibiotic agents; conditions: Gram: neg
Enterococcus faecium = test: Expected efficacy of antibiotic agents; conditions: Gram: pos
Moraxella catarrhalis = test: Expected efficacy of antibiotic agents; conditions: Gram: neg
Citrobacter diversus = test: Expected efficacy of antibiotic agents; conditions: Gram: neg
Bordetella pertussis = test: Expected efficacy of antibiotic agents; conditions: Gram: neg
Chlamydia psittaci = system: Chlamydia psittaci
[7] = system: Staphylococcus epidermidis; test: Expected efficacy of antibiotic agents; conditions: Gram: pos
Rickettsiae = system: Rickettsiae
Legionella pneumophila = system: Legionella pneumophila
Enterobacter sakazakii = test: Expected efficacy of antibiotic agents; conditions: Gram: neg
Enterococcus faecalis = test: Expected efficacy of antibiotic agents; conditions: Gram: pos
Shigella dysenteriae = test: Expected efficacy of antibiotic agents; conditions: Gram: neg
Escherichia coli = test: Expected efficacy of antibiotic agents; conditions: Gram: neg
Chlamydia trachomatis = test: Expected efficacy of antibiotic agents; conditions: Gram: n/a
Pseudomonas fluorescens = test: Expected efficacy of antibiotic agents; conditions: Gram: neg
Enterobacter aerogenes = test: Expected efficacy of antibiotic agents; conditions: Gram: neg
[8] = system: Viridans group streptococci; test: Expected efficacy of antibiotic agents; conditions: Gram: pos
Enterobacter cloacae = test: Expected efficacy of antibiotic agents; conditions: Gram: neg
Acinetobacter lwoffii = test: Expected efficacy of antibiotic agents; conditions: Gram: neg
Proteus vulgaris = test: Expected efficacy of antibiotic agents; conditions: Gram: neg
Streptococcus pneumoniae = test: Expected efficacy of antibiotic agents; conditions: Gram: pos
Haemophilus influenzae = test: Expected efficacy of antibiotic agents; conditions: Gram: neg
Brucella species = system: Brucella species
Haemophilus ducreyi = test: Expected efficacy of antibiotic agents; conditions: Gram: neg
Citrobacter freundii = test: Expected efficacy of antibiotic agents; conditions: Gram: neg
Yersinia pestis = system: Yersinia pestis
Corynebacterium jeikeium = test: Expected efficacy of antibiotic agents; conditions: Gram: pos
Bartonella bacilliformis = test: Expected efficacy of antibiotic agents; conditions: Gram: neg

In the case of `OC(Cn1cncn1)(Cn1cncn1)c1ccc(F)cc1F` [Fluconazole], the “efficacy against Aspergillus fumigatus” value (Aspergillus fumigatus) is reported as “yes”, the “efficacy against Blastomyces dermatitidis” value (Blastomyces dermatitidis) is reported as “yes” and the “efficacy against Candida species” value (Candida species) is reported as “yes”. For the same compound, the “efficacy against Cryptococcus neoformans” value (Cryptococcus neoformans) was “yes”, the “efficacy against Histoplasma capsulatum” value (Histoplasma capsulatum) was “yes” and the “efficacy against Coccidioides immitis” value (Coccidioides immitis) was “yes”. The “efficacy against Aspergillus flavus” value (Aspergillus flavus) was “yes”.
For `CN[C@H](CC(C)C)C(=O)N[C@H]1C(=O)N[C@@H](CC(N)=O)C(=O)N[C@H]2C(=O)N[C@H]3C(=O)N[C@H](C(=O)N[C@H](C(=O)O)c4cc(O)cc(O)c4-c4cc3ccc4O)[C@H](O)c3ccc(c(Cl)c3)Oc3cc2cc(c3O[C@@H]2O[C@H](CO)[C@@H](O)[C@H](O)[C@H]2O[C@H]2C[C@](C)(N)[C@H](O)[C@H](C)O2)Oc2ccc(cc2Cl)[C@H]1O` [Vancomycin], the “efficacy against Pseudomonas aeruginosa” value (Pseudomonas aeruginosa) was “no”, the “efficacy against Vibrio cholerae” value (Vibrio cholerae) was “no” and the “efficacy against Bacteroides fragilis” value (Bacteroides fragilis) was “no”. For the same compound, the “efficacy against Diphtheroids” value (Diphtheroids) was “yes”, the “efficacy against Shigella sonnei” value (Shigella sonnei) was “no” and the “efficacy against Francisella tularensis” value (Francisella tularensis) was “no”. The “efficacy against Peptostreptococcus” value (Peptostreptococcus) was “yes”, the “efficacy against Providencia stuartii” value (Providencia stuartii) was “no” and the “efficacy against Methicillin resistant staph aureus (MRSA)” value [1] was “yes”. For the same compound, the “efficacy against Klebsiella pneumoniae” value (Klebsiella pneumoniae) was “no”, the “efficacy against Providencia rettgeri” value (Providencia rettgeri) was “no” and the “efficacy against Klebsiella (Calymmatobacterium) granulomatis” value [2] was “no”. For the same compound, the “efficacy against Shigella flexneri” value (Shigella flexneri) was “no”, the “efficacy against Haemophilus parainfluenzae” value [3] was “no” and the “efficacy against Proteus mirabilis” value (Proteus mirabilis) was “no”. The “efficacy against Acinetobacter calcoaceticus” value [4] was “no”, the “efficacy against Streptococcus agalactiae” value (Streptococcus agalactiae) was “yes” and the “efficacy against Clostridium perfringens” value (Clostridium perfringens) was “no”. For the same compound, the “efficacy against Chlamydia pneumoniae” value (Chlamydia pneumoniae) was “no”, the “efficacy against Serratia marcescens” value (Serratia marcescens) was “no” and the “efficacy against Neisseria meningitidis” value (Neisseria meningitidis) was “no”. The “efficacy against Morganella morganii” value (Morganella morganii) was “no”, the “efficacy against Mycoplasma pneumoniae” value (Mycoplasma pneumoniae) was “no” and the “efficacy against Neisseria gonorrhoeae” value (Neisseria gonorrhoeae) was “no”. For the same compound, the “efficacy against Salmonella typhi” value (Salmonella typhi) was “no”, the “efficacy against Corynebacterium urealyticum” value [5] was “yes” and the “efficacy against Streptococcus pyogenes” value (Streptococcus pyogenes) was “yes”. The “efficacy against Klebsiella oxytoca” value (Klebsiella oxytoca) was “no”, the “efficacy against Clostridium difficile” value (Clostridium difficile) was “yes” and the “efficacy against Campylobacter jejuni” value (Campylobacter jejuni) was “no”. For the same compound, the “efficacy against Staphylococcus aureus (MSSA)” value [6] was “yes”, the “efficacy against Acinetobacter baumannii” value (Acinetobacter baumannii) was “no” and the “efficacy against Shigella boydii” value (Shigella boydii) was “no”. For the same compound, the “efficacy against Enterococcus faecium” value (Enterococcus faecium) was “yes, not VRE”, the “efficacy against Moraxella catarrhalis” value (Moraxella catarrhalis) was “no” and the “efficacy against Citrobacter diversus” value (Citrobacter diversus) was “no”. For the same compound, the “efficacy against Bordetella pertussis” value (Bordetella pertussis) was “no”, the “efficacy against Chlamydia psittaci” value (Chlamydia psittaci) was “no” and the “efficacy against Staphylococcus epidermidis” value [7] was “yes”. For the same compound, the “efficacy against Rickettsiae” value (Rickettsiae) was “no”, the “efficacy against Legionella pneumophila” value (Legionella pneumophila) was “no” and the “efficacy against Enterobacter sakazakii” value (Enterobacter sakazakii) was “no”. The “efficacy against Enterococcus faecalis” value (Enterococcus faecalis) was “yes”, the “efficacy against Shigella dysenteriae” value (Shigella dysenteriae) was “no” and the “efficacy against Escherichia coli” value (Escherichia coli) was “no”. For the same compound, the “efficacy against Chlamydia trachomatis” value (Chlamydia trachomatis) was “no”, the “efficacy against Pseudomonas fluorescens” value (Pseudomonas fluorescens) was “no” and the “efficacy against Enterobacter aerogenes” value (Enterobacter aerogenes) was “no”. The “efficacy against Viridans group streptococci” value [8] was “yes”, the “efficacy against Enterobacter cloacae” value (Enterobacter cloacae) was “no” and the “efficacy against Acinetobacter lwoffii” value (Acinetobacter lwoffii) was “no”. The “efficacy against Proteus vulgaris” value (Proteus vulgaris) was “no”, the “efficacy against Streptococcus pneumoniae” value (Streptococcus pneumoniae) was “yes” and the “efficacy against Haemophilus influenzae” value (Haemophilus influenzae) was “no”. For the same compound, the “efficacy against Brucella species” value (Brucella species) was “no”, the “efficacy against Haemophilus ducreyi” value (Haemophilus ducreyi) was “no” and the “efficacy against Citrobacter freundii” value (Citrobacter freundii) was “no”. The “efficacy against Yersinia pestis” value (Yersinia pestis) was “no”, the “efficacy against Corynebacterium jeikeium” value (Corynebacterium jeikeium) was “yes” and the “efficacy against Bartonella bacilliformis” value (Bartonella bacilliformis) was “no”.
